# Source: US9351959B2, “Alpha adreneric receptor agonists for treatment of degenerative disc disease” (WARSAW ORTHOPEDIC INC., priority 2008, dated 2016)
# Test system: Rat Chronic Constriction Injury Model
# Settings: 0.02 mg/kg/day subcutaneously; compared to unloaded polymer depots; FIG. 4
# From the text: The inventors evaluated the efficacy of a five Month Clonidine/Polymer Drug Depot in the Rat Chronic Constriction Injury Model. The animal model was the Bennett Model (Wistar rat). The purpose: To determine whether a five month polymer clonidine-eluting depot can improve pain associated behavioral responses in a rat model of neuropathic pain.
# Experimental Design: Four loose chromic gut ligatures, 1 mm apart, were tied around the common sciatic nerve at mid-thigh. Each animal received treatment of test or control article—according to the dosing described in Table 5.
# The inventors have conducted the present study for a period of 64 days and have employed the following two tests: (1) the Hargreaves test; and (2) the von Frey test. The Hargreaves Tests of Thermal Hyperalgesia were conducted on days 7, 14, 21, 28, 35, 42, 49, 56 and 63. The von Frey monofilament test of mechanical allodynia (performed the day following Thermal testing) were conducted on days-8, 15, 22, 29, 36, 43, 50, 57 and 64.
structure (smiles),measurement,value
"Clc1cccc(Cl)c1N=C1NCCN1 [clonidine, 2,6-dichloro-N-2-imidazolidinyldenebenzenamine]",pain behavioral response (measured as a percentage of baseline) for mechanical allodynia,reduced the behavioral response
